The structures appear in SMILES notation. Values joined by “and” are separate entries in the source; they are usually repeats but may differ in a detail not shown here. Equal values may be shown once.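 These data come from cells grown in 96-well plates and exposed to compound for 48 hours at five concentrations. GI50: concentration for 50% inhibition of growth. TGI is the concentration that stops growth completely.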

In PubChem BioAssay (NCI) one finds TGI and GI50 data, which are given here for 15 compounds.

Common to all, as to assay: NCI-60 cell line screen, 48 h
The subject of assay [1] is SNB-19 CNS.
Assay [2] has as its system LOX IMVI melanoma.
Assay [3] concerns MALME-3M melanoma.
Assay [4] concerns M14 melanoma.
Assay [5] relates to M19-MEL melanoma.
For assay [6], the system named is HCT-116 colon.
Assay [7] has as its system LXFL 529 NSCLC.
The test system of assay [8] is UACC-257 melanoma.
The subject of assay [9] is SK-MEL-5 melanoma.
Assay [10] relates to HS 578T breast.

With `NC(CCCNCc1ccccc1O)C(=O)O` (centres undefined), the TGI in [1], in assay [2], in [3], in assay [4], in assay [5] and in assay [6] was greater than 100 µM throughout. The TGI in assay [7], in [8] and in [9] was greater than 100 µM throughout.

Consider `O=c1[nH]c(C2CCCCC2)nc2cc(Cl)ccc12`, for which the TGI in assay [1], in assay [3], in [5], in [6], in assay [7] and in assay [8] was greater than 100 µM in each case. The TGI in [9] was greater than 100 µM.

Consider `O=C(Nc1ccc(Cl)cc1Cl)/C(Cl)=C1/Sc2ccccc2NC1=O`, for which the TGI is greater than 100 µM in assay [1]; greater than 100 µM in assay [2]; 77.9 µM in assay [3]; greater than 100 µM in assay [4]; greater than 100 µM in assay [5]; 66.4 µM in assay [6]. In addition, the TGI is greater than 100 µM in assay [7] and 45.8 µM in assay [9].

Take `O=C(CCc1cc(-c2ccco2)n(-c2ccc([N+](=O)[O-])cc2[N+](=O)[O-])n1)Nc1ccccc1`: the TGI is greater than 100 µM in assay [1]; 94.2 µM in assay [3]; greater than 100 µM in [4]; greater than 100 µM in [5]; greater than 100 µM in [6]; greater than 100 µM in [7]. Also, the TGI in [8] and in assay [9] was greater than 100 µM in each case.

As for `COC(=O)C12OCC34C(CC5C(C)=CC(=O)C(O)C5(C)C3C(O)C1O)OC(=O)C(OC(=O)CC(C)C)C24` (centres undefined), the GI50 in assay [2] is < 0.0336 µM and 0.05 µM; in [3], less than 0.0356 µM; in assay [4], 0.0034 µM; in [5] it was less than 0.0377 µM; in [7], 0.00384 µM; in assay [8] it was 0.0788 µM and 0.05 µM. The TGI is 0.0129 µM and 0.0689 µM in [4]; 0.0825 µM and 0.104 µM in [7]; 0.000948 µM in assay [10].

Take `FC(F)(F)c1ccccc1C=NC12CC3CC(CC(C3)C1)C2`: the TGI in assay [1], in assay [2], in assay [3], in [4], in assay [5] and in assay [6] was greater than 100 µM in each case. The TGI in [8] and in assay [9] was greater than 100 µM each time.

For the compound `[O-][N+]1=C(c2ccccc2)COc2ccccc21`, the TGI in [1], in assay [2], in assay [3], in assay [4], in assay [5] and in [6] was greater than 100 µM in each case. Further, the TGI in assay [7], in [8] and in assay [9] was greater than 100 µM throughout.

Regarding `C=C1CCC2C(C)(CO)C(O)CCC2(C)C1CC(O)C1=CCOC1=O` (centres undefined), the TGI in assay [1] is greater than 100 µM; in [2], greater than 100 µM; in assay [3] it was greater than 100 µM; in assay [4] it was greater than 100 µM; in assay [5], greater than 100 µM; in assay [6], 73.3 µM. The TGI in [7], in assay [8] and in assay [9] was greater than 100 µM each time.

As to `O=CN/C=C/c1ccccc1O`, the TGI in [1], in assay [2], in assay [3], in [4], in [5] and in assay [6] was greater than 100 µM in each case. Also, the TGI in assay [7], in assay [8] and in assay [9] was greater than 100 µM throughout.

As to `O=C1CC23CC(=O)CC2(C1)c1ccccc1C3=O` (centres undefined), the TGI in assay [1], in assay [2], in [3], in [4], in [5] and in assay [6] was greater than 100 µM in each case. The TGI in assay [7] and in assay [8] was greater than 100 µM in each case.

Consider `Cc1ccc(S(=O)(=O)NC(=O)Nc2nc(Cl)cc(Cl)n2)cc1`, for which the TGI in assay [1], in assay [2], in assay [3], in [4], in assay [5] and in assay [6] was greater than 100 µM throughout. The TGI in [7], in [8] and in assay [9] was greater than 100 µM each time.

For the compound `Cc1cc2c(=O)cc(-c3ccc(C(=O)O)cc3)oc2c(C(=O)O)c1C`, the TGI in [1], in assay [2], in [3], in assay [4], in assay [5] and in [6] was greater than 100 µM throughout. Further, the TGI in assay [7], in assay [8] and in assay [9] was greater than 100 µM in each case.

As to `COC(=O)CCC(=O)C(C#N)c1ccc(Cl)cc1Cl` (centres undefined), the TGI in [1], in [2], in assay [3], in [4], in assay [5] and in [6] was greater than 100 µM in each case. Also, the TGI in assay [7] and in [8] was greater than 100 µM throughout.

With `Cn1c(-c2ccccc2)c/c(=N\NS(C)(=O)=O)c2cc(S(=O)(=O)O)ccc21`, the TGI in [1], in [2], in assay [3], in [4], in [5] and in assay [6] was greater than 100 µM in each case. The TGI in assay [7], in assay [8] and in assay [9] was greater than 100 µM in each case.

As for `Cc1cc(NC(=O)C(=O)Cc2nc3ccccc3s2)ccc1Cl`, the TGI in assay [1], in [2], in assay [3], in assay [4], in assay [5] and in assay [6] was greater than 100 µM each time. Besides, the TGI in assay [7], in assay [8], in [10] and in [9] was greater than 100 µM each time.
